Measurements reported in patent US20070185161A1, “Bicyclic substituted indole-derivative steroid hormone nuclear receptor modulators” (priority 2004, published 2007).

Molecular target: T1, human MR (Homo sapiens, UniProt P08235)
T1 construct: The full length human MR gene is cloned from a human kidney or human brain cDNA library; made in house; host or cells: SF9 insect cells (baculovirus)
T1 sequence (P08235 1-984): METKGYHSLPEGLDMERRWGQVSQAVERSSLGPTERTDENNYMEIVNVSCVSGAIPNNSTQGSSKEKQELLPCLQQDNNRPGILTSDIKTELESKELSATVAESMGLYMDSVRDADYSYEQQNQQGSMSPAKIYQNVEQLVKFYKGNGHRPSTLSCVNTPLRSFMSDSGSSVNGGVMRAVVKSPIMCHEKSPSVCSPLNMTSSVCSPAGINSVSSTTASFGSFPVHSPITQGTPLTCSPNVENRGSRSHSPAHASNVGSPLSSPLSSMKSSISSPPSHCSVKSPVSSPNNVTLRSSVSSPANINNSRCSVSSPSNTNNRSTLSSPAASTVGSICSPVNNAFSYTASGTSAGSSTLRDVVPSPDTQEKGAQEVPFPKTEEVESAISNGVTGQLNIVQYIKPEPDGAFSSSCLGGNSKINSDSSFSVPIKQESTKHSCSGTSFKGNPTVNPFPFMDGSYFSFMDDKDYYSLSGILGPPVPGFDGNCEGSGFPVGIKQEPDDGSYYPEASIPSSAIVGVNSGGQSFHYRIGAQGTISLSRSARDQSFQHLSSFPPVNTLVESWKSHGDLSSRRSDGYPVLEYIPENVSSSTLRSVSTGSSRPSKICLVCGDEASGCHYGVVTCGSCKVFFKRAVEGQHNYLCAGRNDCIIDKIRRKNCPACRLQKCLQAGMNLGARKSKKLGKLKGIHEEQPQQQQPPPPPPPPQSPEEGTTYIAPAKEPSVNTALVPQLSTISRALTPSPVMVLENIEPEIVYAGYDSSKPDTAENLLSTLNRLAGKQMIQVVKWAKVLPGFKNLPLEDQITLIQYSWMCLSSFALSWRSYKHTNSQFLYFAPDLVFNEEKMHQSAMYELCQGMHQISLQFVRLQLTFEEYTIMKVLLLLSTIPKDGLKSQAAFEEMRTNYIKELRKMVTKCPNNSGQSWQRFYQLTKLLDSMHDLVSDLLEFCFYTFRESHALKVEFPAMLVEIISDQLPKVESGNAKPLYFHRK
Assay: Mineralocorticoid Receptor Binding Assay (Method 1)
Conditions: [3H]-aldosterone, racemic mixture unless otherwise indicated
Procedure: The full length human MR gene is cloned from a human kidney or human brain cDNA library. Briefly, using synthetic oligonucleotide primers (Eli Lilly and Company, Indianapolis) directed to nucleotides 20-54 and 3700-3666 of the human MR, polymerase chain reaction (PCR) is performed under standard conditions using a human cDNA library. The PCR reaction is performed in a final volume of 50 μl containing about 1 μl of a 50× stock solution of polymerase; about 1 μl of a 50× stock solution of dNTP; about 5 μl of an appropriate PCR buffer; about 1 μl of each primer; about 5 μl of a H. kidney or H. brain cDNA library; and about 36 μl of water. The reaction is allowed to denature for about 30 seconds at 95 degrees Celsius, anneal for about 30 seconds at 55 degrees Celsius, and extend for about 5 minutes at 72 degrees Celsius, the sequence being repeated for a total of about 35 cycles. The desired PCR product (3.68 Kb) is confirmed by gel electrophoresis and subsequently cut from the gel and stored at about −20 degrees Celsius until extraction. To extract the cDNA product from the agarose gel, the QIAEX II Gel Extraction protocol (QIAGEN, Inc.) is employed according to the manufacturer's instructions. Following extraction, the MR cDNA is cloned into an appropriate cloning vector (Zero Blunt TOPO PCR Cloning Kit (Invitrogen, Inc.) and a pAcHLT-baculovirus transfer vector (B.D./Pharminogen), then expressed in SF9 insect cells, essentially according to manufacturer's instructions. Sf9 cells are grown at a scale where gram quantity cell pellets are obtained for subsequent use in the MR binding assay. Harvested cell pellets are lysed by repeated freeze-thaw cycles (about 4) in a suitable lysis buffer then centrifuged at about 1×10^3 G (with the supernatant being saved for future assays).
MR binding assays are performed in a final total volume of about 250 μl containing about 20-25 μg of protein and 0.5 nM of [^3H]-aldosterone plus varying concentrations of test compound or vehicle. The assay binding buffer consists of 30 mM sodium molybdate, 30 mM of TRIS-HCl, 5 mM sodium phosphate, 5 mM sodium pyrophosphate, and about 10% glycerol, pH=7.5.
Briefly, assays are prepared at RT in 96-well Falcon 3072 plates, each well containing 210 μl of binding buffer, 10 μl of [^3H]-aldosterone, 10 μl of test compound/vehicle, and 20 μl of the resuspended receptor protein extract. Incubations are carried out at 4 degrees Celsius with shaking for about 16 hours. 200 μl aliquots of each incubation are filtered onto Millipore HA 0.45 micron 96-well filter plates, pre-moistened with cold 30 mM TRIS-HCl. The filter plates are suctioned dry with vacuum and immediately washed 3× with cold 30 mM TRIS-HCl. The plates are then punched out and the amount of receptor-ligand complex is determined by liquid scintillation counting using 4 ml of Ready Protein Plus™ liquid scintillation cocktail.
IC50 values (defined as the concentration of test compound required to decrease [^3H]-aldosterone binding by 50%) are then determined. Ki values for each respective test compound can then be calculated by application of the Cheng-Prusoff equation as described in Cheng et al., Relationship Between The Inhibition Constant (Ki) and The Concentration of Inhibitor Which Causes 50% Inhibition (IC50) of an Enzymatic Reaction, Biochem. Pharmacol., 22: 3099-31088; (1973).

Ki, ≤ 500 nM:
CCC1(c2c[nH]c3c(NS(C)(=O)=O)cccc23)CCc2cc(F)ccc21 (racemic) [Example 1, N-[3-(1-ethyl-5-fluoro-indan-1-yl)-1H-indol-7-yl]-methanesulfonamide]
CC1(c2c[nH]c3c(NS(C)(=O)=O)cccc23)CCc2cc(F)ccc21 (racemic) [Example 21, N-[3-(5-Fluoro-1-methyl-indan-1-yl)-1H-indol-7-yl]-methanesulfonamide]
CC1(c2c[nH]c3c(NS(C)(=O)=O)cccc23)CCc2cc(F)cc(F)c21 (racemic) [Example 22, N-[3-(5,7-Difluoro-1-methyl-indan-1-yl)-1H-indol-7-yl]-methanesulfonamide]
CCC1(c2c[nH]c3c(NS(C)(=O)=O)cccc23)CCc2cc(F)cc(F)c21 (racemic) [Example 23, N-[3-(1-Ethyl-5,7-difluoro-indan-1-yl)-1H-indol-7-yl]-methanesulfonamide]
CC1(c2c[nH]c3c(NS(C)(=O)=O)cccc23)CCCc2cc(F)ccc21 (racemic) [Example 28, N-[3-(6-Fluoro-1-methyl-1,2,3,4-tetrahydro-naphthalen-1-yl)-1H-indol-7-yl]-methanesulfonamide]
CCC1(c2c[nH]c3c(NS(C)(=O)=O)cccc23)CCCc2cc(F)ccc21 (racemic) [Example 29, N-[3-(1-Ethyl-6-fluoro-1,2,3,4-tetrahydro-naphthalen-1-yl)-1H-indol-7-yl]-methanesulfonamide]
CCC1(c2c[nH]c3c(NS(C)(=O)=O)cccc23)CCCc2cc(F)cc(F)c21 (racemic) [Example 31, N-[3-(1-Ethyl-6,8-difluoro-1,2,3,4-tetrahydro-naphthalen-1-yl)-1H-indol-7-yl]-methanesulfonamide]
CC1(c2c[nH]c3c(NS(C)(=O)=O)cccc23)CCOc2cc(F)ccc21 (racemic) [Example 34, N-[3-(7-Fluoro-4-methyl-chroman-4-yl)-1H-indol-7-yl]-methanesulfonamide]
CCC1(c2c[nH]c3c(NS(C)(=O)=O)cccc23)CCOc2cc(F)ccc21 (racemic) [Example 35, N-[3-(4-Ethyl-7-fluoro-chroman-4-yl)-1H-indol-7-yl]-methanesulfonamide]
CCC1(c2c[nH]c3c(NS(C)(=O)=O)cccc23)CCOc2cc(F)cc(F)c21 (racemic) [Example 36, N-[3-(4-Ethyl-5,7-difluoro-chroman-4-yl)-1H-indol-7-yl]-methanesulfonamide]
CS(=O)(=O)Nc1cccc2c(C3(C4CC4)CCc4cc(F)ccc43)c[nH]c12 (racemic) [Example 39, N-[3-(1-Cyclopropyl-5-fluoro-indan-1-yl)-1H-indol-7-yl]-methanesulfonamide]
CS(=O)(=O)Nc1cccc2c(C3(CCCO)CCc4cc(F)ccc43)c[nH]c12 (racemic) [Example 40, N-{3-[5-Fluoro-1-(3-hydroxy-propyl)-indan-1-yl]-1H-indol-7-yl}-methanesulfonamide]
CCC1(c2c[nH]c3c(NS(C)(=O)=O)cccc23)CCc2cc(F)ccc21 (single isomer, unassigned) [Example 1A, N-[3-(1-ethyl-5-fluoro-indan-1-yl)-1H-indol-7-yl]-methanesulfonamide]
CC1(c2c[nH]c3c(NS(C)(=O)=O)cccc23)CCc2cc(F)ccc21 (single isomer, unassigned) [Example 21A, N-[3-(5-Fluoro-1-methyl-indan-1-yl)-1H-indol-7-yl]-methanesulfonamide]
CC1(c2c[nH]c3c(NS(C)(=O)=O)cccc23)CCc2cc(F)ccc21 (single isomer, unassigned) [Example 21B, N-[3-(5-Fluoro-1-methyl-indan-1-yl)-1H-indol-7-yl]-methanesulfonamide]
CC1(c2c[nH]c3c(NS(C)(=O)=O)cccc23)CCc2cc(F)cc(F)c21 (single isomer, unassigned) [Example 22A, N-[3-(5,7-Difluoro-1-methyl-indan-1-yl)-1H-indol-7-yl]-methanesulfonamide]
CC1(c2c[nH]c3c(NS(C)(=O)=O)cccc23)CCc2cc(F)cc(F)c21 (single isomer, unassigned) [Example 22B, N-[3-(5,7-Difluoro-1-methyl-indan-1-yl)-1H-indol-7-yl]-methanesulfonamide]
CCC1(c2c[nH]c3c(NS(C)(=O)=O)cccc23)CCc2cc(F)cc(F)c21 (single isomer, unassigned) [Example 23A, N-[3-(1-Ethyl-5,7-difluoro-indan-1-yl)-1H-indol-7-yl]-methanesulfonamide]
CCC1(c2c[nH]c3c(NS(C)(=O)=O)cccc23)CCc2cc(F)cc(F)c21 (single isomer, unassigned) [Example 23B, N-[3-(1-Ethyl-5,7-difluoro-indan-1-yl)-1H-indol-7-yl]-methanesulfonamide]
CC1(c2c[nH]c3c(NS(C)(=O)=O)cccc23)CCCc2cc(F)ccc21 (single isomer, unassigned) [Example 28A, N-[3-(6-Fluoro-1-methyl-1,2,3,4-tetrahydro-naphthalen-1-yl)-1H-indol-7-yl]-methanesulfonamide]
CC1(c2c[nH]c3c(NS(C)(=O)=O)cccc23)CCCc2cc(F)ccc21 (single isomer, unassigned) [Example 28B, N-[3-(6-Fluoro-1-methyl-1,2,3,4-tetrahydro-naphthalen-1-yl)-1H-indol-7-yl]-methanesulfonamide]
CCC1(c2c[nH]c3c(NS(C)(=O)=O)cccc23)CCCc2cc(F)ccc21 (single isomer, unassigned) [Example 29A, N-[3-(1-Ethyl-6-fluoro-1,2,3,4-tetrahydro-naphthalen-1-yl)-1H-indol-7-yl]-methanesulfonamide]
CCC1(c2c[nH]c3c(NS(C)(=O)=O)cccc23)CCCc2cc(F)ccc21 (single isomer, unassigned) [Example 29B, N-[3-(1-Ethyl-6-fluoro-1,2,3,4-tetrahydro-naphthalen-1-yl)-1H-indol-7-yl]-methanesulfonamide]
